Test results from ChEMBL document CHEMBL3046898, “Synthesis and characterization of flurbiprofen hydrazide derivatives as potential anti-HCV, anticancer and antimicrobial agents” (2013).
The source made the active and inactive calls. The calls are words filed in the database; no cut-off is given here.

How the values were obtained:
Staphylococcus aureus = assay: Antibacterial activity against Staphylococcus aureus at 6.25 to 200 ug/ml after 24 hrs by microwell dilution assay; assay type: functional, organism-based
MCF7 = assay: Cytotoxicity against human MCF7 assessed as cell growth at 10 uM after 48 hrs by SRB assay; assay type: functional; details: MCF7, 48 h, read-out: Activity
DU-145 = assay: Cytotoxicity against human DU145 assessed as cell growth at 10 uM after 48 hrs by SRB assay; assay type: functional; details: DU-145, 48 h, read-out: Activity
M14 = assay: Cytotoxicity against human M14 assessed as cell growth at 10 uM after 48 hrs by SRB assay; assay type: functional; details: M14, 48 h, read-out: Activity
NCI-H23 = assay: Cytotoxicity against human NCI-H23 assessed as cell growth at 10 uM after 48 hrs by SRB assay; assay type: functional; details: NCI-H23, 48 h, read-out: Activity
HOP-92 = assay: Cytotoxicity against human HOP92 assessed as cell growth at 10 uM after 48 hrs by SRB assay; assay type: functional; details: HOP-92, 48 h, read-out: Activity
[1] = system: Acinetobacter radioresistens; assay: Antibacterial activity against Acinetobacter radioresistens at 6.25 to 200 ug/ml after 24 hrs by microwell dilution method; assay type: functional, organism-based

CC(C(=O)NN1C(=O)CSC1c1ccc(C(F)(F)F)cc1)c1ccc(-c2ccccc2)c(F)c1 (configuration not stated)
Activity (Staphylococcus aureus): inactive | growth at 10 µM (MCF7): 43% | growth at 10 µM (DU-145): 81.5% | growth at 10 µM (M14): 54.5% | growth at 10 µM (NCI-H23): 90.4% | growth at 10 µM (HOP-92): 59.9% | Activity [1]: inactive
